Consider one compound from patent publication EP0001395A2, “Substituted N-phenyl-2,5-pyrrolidinones, method for their preparation and their use as fungicides” (BAYER AG, priority 1977, dated 1979).

One assay concerns Pellicularia sasakii. Nature of the assay: Pellicularia test (rice plants). It counts as in vivo. The note with it: spray on rice plants, infection of leaf sheaths rated after 5 to 8 days; compared with Zinksalz der Athylenbis-dithiocarbamidsäure. The source says: • Lösungsmittel: 11,75 Gewichtsteile Aceton • Dispergiermittel: 0,75 Gewichtsteile Alkyl-arylpolyglykoläther • Wasser: 987,50 Gewichtsteile • andere Zusätze: - Gewichtsteile -
Man vermischt die für die gewünschte Wirkstoffkonzentration in der Spritzflüssigkeit nötige Wirkstoffmenge mit der angegebenen Menge des Lösungsmittels und des Dispergiermittels und verdünnt das Konzentrat mit der angegebenen Menge Wasser.
Mit der Spritzflüssigkeit bespritzt man 30 etwa 2-4 Wochen alte Reispflanzen bis zur Tropfnässe. Die Pflanzen verbleiben bis zum Abtrocknen in einem Gewächshaus bei Temperaturen von 22 bis 24°C und einer relativen Luftfeuchtigkeit von etwa 70 %. Die Pflanzen werden mit einer auf Malzagar gezogenen Kultur von Pellicularia sasakii inokuliert und bei 28 bis 30°C sowie 100 % relativer Luftfeuchtigkeit aufgestellt.
Bei den mit Pellicularia sasakii infizierten Pflanzen wird der Befall nach 5 bis 8 Tagen an den Blattscheiden ebenfalls im Verhältnis zur unbehandelten, aber infizierten Kontrolle bestimmt. Die Auswertung erfolgt in Wertzahlen von 1 bis 9. 1 bedeutet 100%ige Wirkung, 3= gute Wirkung, 5 = mäßige Wirkung und 9 = keine Wirkung.

A further assay concerns Botrytis cinerea. Nature of the assay: Botrytis test (beans) / protective. It counts as in vivo. The note with it: protective spray on Phaseolus vulgaris, inoculation after 24 h, lesion size rated 3 days after inoculation; compared with Tetramethyl-thiuramidisulfid. From the text: Botrytis-Test (Bohnen) / protektiv
• Lösungsmittel: 4,7 Gewichtsteile Aceton • Dispergiermittel: 0,3 Gewichtsteile Alkyl-arylpolyglykoläther • Wasser: 95,0 Gewichtsteile
Man vermischt die für die gewünschte Wirkstoffkonzentration in der Spritzflüssigkeit nötige Wirkstoffmenge mit der angegebenen Menge des Lösungsmittels und verdünnt das Konzentrat mit der angegebenen Menge Wasser, welches die genannten Zusätze enthält.
Mit der Spritzflüssigkeit bespritzt man Pflanzen von Phaseolus vulgaris im 2-Blattstadium bis zur Tropfnässe. Nach 24 Stunden werden auf jedes Blatt 2 kleine mit Botrytis cinerea bewachsene Agarstückchen aufgelegt. Die inokulierten Pflanzen werden in einer abgedunkelten, feuchten Kammer bei 20°C aufgestellt. 3 Tage nach der Inokulation wird die Größe der Befallsflecken auf den Blättern bonitiert.
Die erhaltenen Boniturwerte werden auf Prozent Befall umgerechnet. 0 % bedeutet keinen Befall, 100 % bedeutet, daß der Befallsfleck vollständig ausgebildet ist.

As for `O=C1CC(C2C=CCC2)C(=O)N1c1cc(Cl)cc(Cl)c1` (centres unmarked) [Beispiel 1, N-(3,5-Dichlorphenyl)-△ ^2-cyclopenten-1-yl-bernsteinsäureimid], the Wirkung entry with Pellicularia sasakii is reported as “gute, dem bekannten Zinksalz der Athylenbis-dithiocarbamidsäure überlegene Wirkung”; with Botrytis cinerea, “gute, dem bekannten Tetramethyl-thiuramidisulfid überlegene Wirkung”.
